Results reported in ChEMBL document CHEMBL3286303, “Synthesis and in vitro antiproliferative evaluation of novel N-alkylated 6-isobutyl- and propyl pyrimidine derivatives” (Bioorg Med Chem Lett, 2014).
Activity calls are given as the source filed them. The rule behind the calls is not given here.

Assays:
[1] = test system: SW-620; test: Cell cycle arrest in human SW620 cells as assessed as accumulation at S phase at 0.1 uM after 48 hrs by propidium iodide staining-based flow cytometric analysis relative to control; format: functional
[2] = test system: K562; test: Cell cycle arrest in human K562 cells as assessed as accumulation at sub-G1 phase at 1 uM after 48 hrs by propidium iodide staining-based flow cytometric analysis relative to control; format: functional
[3] = test system: SW-620; test: Antiadhesive activity against human SW620 cells at 5 uM after 2 to 24 hrs by crystal-violet staining-based microscopic analysis; format: functional, cell-based
[4] = test system: MCF7; test: Cell cycle arrest in human MCF7 cells as assessed as accumulation at G2/M phase at 0.1 uM after 24 hrs by propidium iodide staining-based flow cytometric analysis relative to control; format: functional
[5] = test system: WI-38; test: Cell cycle arrest in human WI38 cells as assessed as accumulation at S phase at 0.1 uM after 48 hrs by propidium iodide staining-based flow cytometric analysis relative to control; conditions: wi-38, 48 h
[6] = test system: WI-38; test: Cell cycle arrest in human WI38 cells as assessed as accumulation at sub-G1 phase at 1 uM after 24 hrs by propidium iodide staining-based flow cytometric analysis relative to control; conditions: wi-38, 24 h
[7] = test system: SW-620; test: Cell cycle arrest in human SW620 cells as assessed as accumulation at G2/M phase at 0.1 uM after 24 hrs by propidium iodide staining-based flow cytometric analysis relative to control; format: functional
[8] = test system: SW-620; test: Antiproliferative activity against human SW620 cells after 72 hrs by MTT assay; format: functional, cell-based
[9] = test system: WI-38; test: Cell cycle arrest in human WI38 cells as assessed as accumulation at G2/M phase at 1 uM after 24 hrs by propidium iodide staining-based flow cytometric analysis relative to control; conditions: wi-38, 24 h
[10] = test system: K562; test: Cell cycle arrest in human K562 cells as assessed as accumulation at S phase at 0.1 uM after 24 hrs by propidium iodide staining-based flow cytometric analysis relative to control; format: functional
[11] = test system: MCF7; test: Antiadhesive activity against human MCF7 cells at 5 uM after 2 to 24 hrs by crystal-violet staining-based microscopic analysis; format: functional, cell-based
[12] = test system: SW-620; test: Cell cycle arrest in human SW620 cells as assessed as accumulation at S phase at 0.1 uM after 24 hrs by propidium iodide staining-based flow cytometric analysis relative to control; format: functional
[13] = test system: K562; test: Cell cycle arrest in human K562 cells as assessed as accumulation at S phase at 0.5 uM after 24 hrs by propidium iodide staining-based flow cytometric analysis relative to control; format: functional
[14] = test system: WI-38; test: Cell cycle arrest in human WI38 cells as assessed as accumulation at S phase at 1 uM after 48 hrs by propidium iodide staining-based flow cytometric analysis relative to control; conditions: wi-38, 48 h
[15] = test system: WI-38; test: Cell cycle arrest in human WI38 cells as assessed as accumulation at G2/M phase at 0.1 uM after 24 hrs by propidium iodide staining-based flow cytometric analysis relative to control; conditions: wi-38, 24 h
[16] = test system: K562; test: Cell cycle arrest in human K562 cells as assessed as accumulation at S phase at 0.1 uM after 48 hrs by propidium iodide staining-based flow cytometric analysis relative to control; format: functional
[17] = test system: MCF7; test: Cell cycle arrest in human MCF7 cells as assessed as accumulation at S phase at 0.1 uM after 48 hrs by propidium iodide staining-based flow cytometric analysis relative to control; format: functional
[18] = test system: K562; test: Cell cycle arrest in human K562 cells as assessed as accumulation at sub-G1 phase at 1 uM after 24 hrs by propidium iodide staining-based flow cytometric analysis relative to control; format: functional
[19] = test system: K562; test: Cell cycle arrest in human K562 cells as assessed as accumulation at sub-G1 phase at 0.1 uM after 24 hrs by propidium iodide staining-based flow cytometric analysis relative to control; format: functional
[20] = test system: BJ; test: Antiadhesive activity against human BJ cells at 5 uM after 2 to 24 hrs by crystal-violet staining-based microscopic analysis; format: ADME, cell-based
[21] = test system: MCF7; test: Cell cycle arrest in human MCF7 cells as assessed as accumulation at sub-G1 phase at 0.1 uM after 48 hrs by propidium iodide staining-based flow cytometric analysis relative to control; format: functional
[22] = test system: K562; test: Cell cycle arrest in human K562 cells as assessed as accumulation at S phase at 1 uM after 48 hrs by propidium iodide staining-based flow cytometric analysis relative to control; format: functional
[23] = test system: WI-38; test: Cell cycle arrest in human WI38 cells as assessed as accumulation at G2/M phase at 0.1 uM after 48 hrs by propidium iodide staining-based flow cytometric analysis relative to control; conditions: wi-38, 48 h
[24] = test system: WI-38; test: Cell cycle arrest in human WI38 cells as assessed as accumulation at G2/M phase at 1 uM after 48 hrs by propidium iodide staining-based flow cytometric analysis relative to control; conditions: wi-38, 48 h
[25] = test system: K562; test: Cell cycle arrest in human K562 cells as assessed as accumulation at G2/M phase at 1 uM after 48 hrs by propidium iodide staining-based flow cytometric analysis relative to control; format: functional
[26] = test system: HeLa; test: Antiadhesive activity against human HeLa cells at 5 uM after 2 to 24 hrs by crystal-violet staining-based microscopic analysis; format: functional, cell-based
[27] = test system: K562; test: Cell cycle arrest in human K562 cells as assessed as accumulation at sub-G1 phase at 0.1 uM after 48 hrs by propidium iodide staining-based flow cytometric analysis relative to control; format: functional
[28] = test system: MCF7; test: Cell cycle arrest in human MCF7 cells as assessed as accumulation at G2/M phase at 0.1 uM after 48 hrs by propidium iodide staining-based flow cytometric analysis relative to control; format: functional
[29] = test system: SW-620; test: Cell cycle arrest in human SW620 cells as assessed as accumulation at sub-G1 phase at 0.1 uM after 48 hrs by propidium iodide staining-based flow cytometric analysis relative to control; format: functional
[30] = test system: WI-38; test: Cell cycle arrest in human WI38 cells as assessed as accumulation at S phase at 1 uM after 24 hrs by propidium iodide staining-based flow cytometric analysis relative to control; conditions: wi-38, 24 h
[31] = test system: WI-38; test: Cell cycle arrest in human WI38 cells as assessed as accumulation at sub-G1 phase at 1 uM after 48 hrs by propidium iodide staining-based flow cytometric analysis relative to control; conditions: wi-38, 48 h
[32] = test system: K562; test: Cell cycle arrest in human K562 cells as assessed as accumulation at G1 phase at 1 uM after 48 hrs by propidium iodide staining-based flow cytometric analysis relative to control; format: functional
[33] = test system: WI-38; test: Cell cycle arrest in human WI38 cells as assessed as accumulation at G1 phase at 0.1 uM after 48 hrs by propidium iodide staining-based flow cytometric analysis relative to control; conditions: wi-38, 48 h
[34] = test system: SW-620; test: Cell cycle arrest in human SW620 cells as assessed as accumulation at G1 phase at 0.1 uM after 48 hrs by propidium iodide staining-based flow cytometric analysis relative to control; format: functional
[35] = test system: WI-38; test: Cell cycle arrest in human WI38 cells as assessed as accumulation at G1 phase at 1 uM after 24 hrs by propidium iodide staining-based flow cytometric analysis relative to control; conditions: wi-38, 24 h
[36] = test system: MCF7; test: Cell cycle arrest in human MCF7 cells as assessed as accumulation at S phase at 1 uM after 48 hrs by propidium iodide staining-based flow cytometric analysis relative to control; format: functional
[37] = test system: MIA PaCa-2; test: (§1) Antiproliferative activity against human MIAPaCa2 cells after 72 hrs by MTT assay; format: functional, cell-based
[38] = as §1; format: functional, cell-based; conditions: MIA PaCa-2, 72 h

COCn1c(CC(COCc2ccccc2)COCc2ccccc2)c(C)c(=O)n(COC)c1=O
Activity [1]: 25.6% | Activity [2]: 4.2% | Activity [3]: Active | Activity [4]: 7.1% | Activity [5]: 6.8% | Activity [6]: 21% | Activity [7]: 21.7% | Activity [8]: Dose-dependent effect | IC50 ([8]; SW-620, 72 h): 500 nM | Activity [9]: 5.1% | Activity [10]: 28.6% | Activity [11]: Active | Activity [12]: 19.6% | Activity [13]: 5.6% | Activity [14]: 3.4% | Activity [15]: 6.9% | Activity [16]: 24.1% | Activity [17]: 11.9% | Activity [18]: 3.1% | Activity [19]: 2.2% | Activity [20]: Toxic | Activity [21]: 50.5% | Activity [22]: 25.9% | Activity [23]: 5.7% | Activity [24]: 3.5% | Activity [25]: 17.4% | Activity [26]: Active | Activity [27]: 3% | Activity [28]: 9.5% | Activity [29]: 6.8% | Activity [30]: 2.4% | Activity [31]: 47.9% | Activity [32]: 51.8% | Activity [33]: 48.5% | Activity [34]: 49.7% | Activity [35]: 70.1% | Activity [36]: 4.9% | Activity [37]: Dose-dependent effect | IC50 [38]: 500 nM
